Reference: ChEMBL document CHEMBL3865786, “Scaffold-hopping of bioactive flavonoids: Discovery of aryl-pyridopyrimidinones as potent anticancer agents that inhibit catalytic role of topoisomerase IIα” (Eur J Med Chem, 2016)
Calls of active or inactive are those of the source. No cut-off for these calls is given here.

Assays:
HEK293 [1] = experiment: Potency index, ratio of etoposide LC50 to compound LC50 for anticlonogenic activity in HEK293 cells; assay type: functional, Homo sapiens
[2] = molecular target: DNA topoisomerase 2-alpha (Homo sapiens) (UniProt P11388); experiment: Inhibition of human DNA topoisomerase 2alpha-mediated decatenation of kinetoplast DNA at 100 uM after 30 mins by agarose gel electrophoresis
Sequence of DNA topoisomerase 2-alpha (Homo sapiens) (P11388 whole entry): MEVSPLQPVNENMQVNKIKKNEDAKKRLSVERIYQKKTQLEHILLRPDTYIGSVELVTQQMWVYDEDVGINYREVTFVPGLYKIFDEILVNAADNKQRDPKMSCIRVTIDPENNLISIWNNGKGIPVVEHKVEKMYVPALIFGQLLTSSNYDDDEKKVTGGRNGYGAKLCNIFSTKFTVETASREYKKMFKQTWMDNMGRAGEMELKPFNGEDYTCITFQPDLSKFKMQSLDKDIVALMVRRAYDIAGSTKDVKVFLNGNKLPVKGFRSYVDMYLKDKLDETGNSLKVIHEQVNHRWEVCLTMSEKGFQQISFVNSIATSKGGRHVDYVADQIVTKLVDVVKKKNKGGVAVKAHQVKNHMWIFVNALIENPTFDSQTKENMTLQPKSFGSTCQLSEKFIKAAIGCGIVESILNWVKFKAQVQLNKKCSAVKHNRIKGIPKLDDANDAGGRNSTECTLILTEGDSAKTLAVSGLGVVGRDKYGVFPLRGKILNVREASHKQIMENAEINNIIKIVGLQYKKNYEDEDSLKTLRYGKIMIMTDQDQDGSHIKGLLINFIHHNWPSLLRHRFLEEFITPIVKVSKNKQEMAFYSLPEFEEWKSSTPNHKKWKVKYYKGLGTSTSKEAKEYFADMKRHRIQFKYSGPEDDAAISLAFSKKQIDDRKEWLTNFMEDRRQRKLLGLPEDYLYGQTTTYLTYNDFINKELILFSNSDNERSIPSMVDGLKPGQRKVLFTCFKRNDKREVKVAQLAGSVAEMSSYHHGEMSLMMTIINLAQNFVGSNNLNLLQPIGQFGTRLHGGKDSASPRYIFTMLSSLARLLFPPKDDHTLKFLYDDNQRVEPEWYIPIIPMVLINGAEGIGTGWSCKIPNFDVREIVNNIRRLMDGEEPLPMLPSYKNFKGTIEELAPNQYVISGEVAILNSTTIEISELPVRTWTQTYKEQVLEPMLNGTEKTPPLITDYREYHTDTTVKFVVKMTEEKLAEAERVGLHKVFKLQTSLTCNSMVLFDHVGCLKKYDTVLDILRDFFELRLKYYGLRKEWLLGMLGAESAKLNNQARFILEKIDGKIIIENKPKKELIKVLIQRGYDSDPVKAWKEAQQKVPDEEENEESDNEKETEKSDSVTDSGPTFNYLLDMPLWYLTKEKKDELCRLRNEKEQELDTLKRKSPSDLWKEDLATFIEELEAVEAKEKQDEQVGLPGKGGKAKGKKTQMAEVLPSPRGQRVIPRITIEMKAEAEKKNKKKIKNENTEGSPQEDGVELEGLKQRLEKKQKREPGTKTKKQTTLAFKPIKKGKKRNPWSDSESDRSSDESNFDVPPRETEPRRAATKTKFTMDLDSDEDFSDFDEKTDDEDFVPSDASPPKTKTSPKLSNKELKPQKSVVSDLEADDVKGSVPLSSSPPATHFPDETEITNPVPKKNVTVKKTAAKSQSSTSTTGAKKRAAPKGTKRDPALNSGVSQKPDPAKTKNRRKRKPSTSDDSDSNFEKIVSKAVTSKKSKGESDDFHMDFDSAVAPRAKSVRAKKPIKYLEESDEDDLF

[3] = Cytotoxicity against African green monkey Vero cells assessed as reduction in cell viability after 48 hrs by MTT assay; assay type: toxicity, cell-based; settings: chlorocebus sabaeus; for CC50 at 48 h: Vero cells, read-out: LC50; for Activity: vero, 48 h
[4] = Cytotoxicity against human A549 cells assessed as reduction in cell viability after 48 hrs by MTT assay; assay type: functional, cell-based; settings: A549, 48 h
[5] = Cytotoxicity against human MCF7 cells assessed as reduction in cell viability after 48 hrs by MTT assay; assay type: functional, cell-based; settings: MCF7, 48 h
[6] = Cytotoxicity against human HeLa cells assessed as reduction in cell viability after 48 hrs by MTT assay; assay type: functional, cell-based
[7] = Cytotoxicity against human HCT116 cells assessed as reduction in cell viability after 48 hrs by MTT assay; assay type: functional, cell-based; settings: HCT-116, 48 h
[8] = Cytotoxicity against human H357 cells assessed as reduction in cell viability after 48 hrs by MTT assay; assay type: functional, cell-based; settings: H357, 48 h
[9] = (§1) Anticlonogenic activity against HEK293 cells assessed as inhibition of colony formation incubated for 48 hrs measured after 6 days by crystal violet staining based assay; assay type: functional; settings: Homo sapiens, read-out: LC50 (the source's name)
HEK293 [10] = experiment: as §1; assay type: functional; settings: Homo sapiens
[11] = (§2) Cytotoxicity against HEK293 cells assessed as reduction in cell viability after 48 hrs by MTT assay; assay type: functional; settings: Homo sapiens, HEK293, 48 h; read-out: LC50 (the source's name)
HEK293 [12] = experiment: as §2; assay type: functional; settings: Homo sapiens
[13] = Binding affinity to DNA (unknown origin) assessed as hypochromism after 1 hr by UV-Vis absorption spectrophotometric analysis
Bos taurus = species on record: Bos taurus; experiment: Binding affinity to calf thymus DNA assessed as DNA intercalation by measuring conformational changes at 100 uM after 2 hrs by CD spectroscopic analysis
HEK293 [14] = experiment: Induction of apoptosis in HEK293 cells assessed as early apoptotic cells at 5 uM after 48 hrs by Annexin-V/FITC/PI dual staining based flow cytometry (reference value: 0.19 +/- 1.4%); assay type: functional, Homo sapiens
HEK293 [15] = experiment: Induction of apoptosis in HEK293 cells assessed as normal cells at 1 uM after 48 hrs by Annexin-V/FITC/PI dual staining based flow cytometry (reference value: 98.2 +/- 1.7%); assay type: functional, Homo sapiens
HEK293 [16] = experiment: Induction of apoptosis in HEK293 cells assessed as normal cells at 5 uM after 48 hrs by Annexin-V/FITC/PI dual staining based flow cytometry (reference value: 98.2 +/- 1.7%); assay type: functional, Homo sapiens
HEK293 [17] = experiment: Induction of apoptosis in HEK293 cells after 48 hrs by Annexin V-FITC/propidium iodide staining based flow cytometry; assay type: functional, cell-based; settings: Homo sapiens
HEK293 [18] = experiment: Induction of apoptosis in HEK293 cells assessed as apoptotic cells at 1 uM after 48 hrs by Annexin-V/FITC/PI dual staining based flow cytometry (reference value: 0.07 +/- 0.2%); assay type: functional, Homo sapiens
HEK293 [19] = experiment: Induction of apoptosis in HEK293 cells assessed as early apoptotic cells at 2.4 uM after 48 hrs by Annexin-V/FITC/PI dual staining based flow cytometry (reference value: 0.19 +/- 1.4%); assay type: functional, Homo sapiens
HEK293 [20] = experiment: Induction of apoptosis in HEK293 cells assessed as late apoptotic cells at 2.4 uM after 48 hrs by Annexin-V/FITC/PI dual staining based flow cytometry (reference value: 0.82 +/- 0.5%); assay type: functional, Homo sapiens
HEK293 [21] = experiment: Induction of apoptosis in HEK293 cells assessed as apoptotic cells at 5 uM after 48 hrs by Annexin-V/FITC/PI dual staining based flow cytometry (reference value: 0.07 +/- 0.2%); assay type: functional, Homo sapiens
HEK293 [22] = experiment: Induction of apoptosis in HEK293 cells assessed as early apoptotic cells at 1 uM after 48 hrs by Annexin-V/FITC/PI dual staining based flow cytometry (reference value: 0.19 +/- 1.4%); assay type: functional, Homo sapiens
HEK293 [23] = experiment: Induction of apoptosis in HEK293 cells assessed as apoptotic cells at 2.4 uM after 48 hrs by Annexin-V/FITC/PI dual staining based flow cytometry (reference value: 0.07 +/- 0.2%); assay type: functional, Homo sapiens
HEK293 [24] = experiment: Induction of apoptosis in HEK293 cells assessed as late apoptotic cells at 5 uM after 48 hrs by Annexin-V/FITC/PI dual staining based flow cytometry (reference value: 0.82 +/- 0.5%); assay type: functional, Homo sapiens
HEK293 [25] = experiment: Induction of apoptosis in HEK293 cells assessed as shrinkage after 48 hrs by DAPI staining based fluorescence microscopy; assay type: functional, cell-based; settings: Homo sapiens
HEK293 [26] = experiment: Induction of apoptosis in HEK293 cells assessed as late apoptotic cells at 1 uM after 48 hrs by Annexin-V/FITC/PI dual staining based flow cytometry (reference value: 0.82 +/- 0.5%); assay type: functional, Homo sapiens
HEK293 [27] = experiment: Induction of apoptosis in HEK293 cells assessed as bubble shaped nuclei after 48 hrs by DAPI staining based fluorescence microscopy; assay type: functional, cell-based; settings: Homo sapiens
HEK293 [28] = experiment: Induction of apoptosis in HEK293 cells assessed as normal cells at 2.4 uM after 48 hrs by Annexin-V/FITC/PI dual staining based flow cytometry (reference value: 98.2 +/- 1.7%); assay type: functional, Homo sapiens
HEK293 [29] = experiment: Induction of apoptosis in HEK293 cells assessed as deformation after 48 hrs by DAPI staining based fluorescence microscopy; assay type: functional, cell-based; settings: Homo sapiens

COc1cc(-c2cnc3ccccn3c2=O)cc(OC)c1OC
RatioLC50 (HEK293 [1]): 5 - 10
Topoisomerase 2-alpha inhibition (active/inactive) [2]: Active
CC50 at 48 h [3]: 40 µM
Activity [3]: Dose-dependent effect
IC50 [4]: 2.1 µM
IC50 [5]: 3 µM
IC50 [6]: 2.8 µM
IC50 [7]: 3.2 µM
IC50 [8]: 3 µM
CC50 [9]: 1.8 µM
inhibition (HEK293 [10]): Dose-dependent effect
CC50 [11]: 3 µM
Activity (HEK293 [12]): Dose-dependent effect

Cc1ccc(-c2cnc3ccccn3c2=O)cc1
RatioLC50 (HEK293 [1]): 5 - 10
Topoisomerase 2-alpha inhibition (active/inactive) [2]: Active
CC50 at 48 h [3]: 44 µM
Activity [3]: Dose-dependent effect
IC50 [4]: 2.5 µM
IC50 [5]: 4 µM
IC50 [6]: 3 µM
IC50 [7]: 2.5 µM
IC50 [8]: 2.8 µM
CC50 [9]: 2.5 µM
inhibition (HEK293 [10]): Dose-dependent effect
CC50 [11]: 3.5 µM
Activity (HEK293 [12]): Dose-dependent effect

COc1cccc(-c2cnc3ccccn3c2=O)c1
Topoisomerase 2-alpha inhibition (active/inactive) [2]: Active
CC50 at 48 h [3]: 46 µM
CC50 [11]: 9 µM

O=c1c(-c2cccc(O)c2)cnc2ccccn12
Topoisomerase 2-alpha inhibition (active/inactive) [2]: Active
CC50 at 48 h [3]: 52 µM
CC50 [11]: 6 µM

COc1ccc(-c2cc(=O)n3ccccc3n2)cc1
Topoisomerase 2-alpha inhibition (active/inactive) [2]: Active
CC50 at 48 h [3]: 60 µM
CC50 [11]: 8 µM

O=c1c(-c2cccc3ccccc23)cnc2ccccn12
Topoisomerase 2-alpha inhibition (active/inactive) [2]: Active
CC50 at 48 h [3]: 60 µM
CC50 [11]: 7 µM

O=c1c(-c2cccc3ccccc23)coc2ccccc12
Topoisomerase 2-alpha inhibition (active/inactive) [2]: Active
CC50 at 48 h [3]: 42 µM
CC50 [11]: 12 µM

COc1cc([C@@H]2c3cc4c(cc3[C@@H](O[C@@H]3O[C@@H]5CO[C@@H](C)O[C@H]5[C@H](O)[C@H]3O)[C@H]3COC(=O)[C@H]23)OCO4)cc(OC)c1O [ETOPOSIDE]
Topoisomerase 2-alpha inhibition (active/inactive) [2]: Active
CC50 at 48 h [3]: 55 µM
CC50 [9]: 20 µM
CC50 [11]: 22 µM

COc1cc(-c2coc3ccccc3c2=O)cc(OC)c1OC
Topoisomerase 2-alpha inhibition (active/inactive) [2]: Active
CC50 at 48 h [3]: 50 µM
CC50 [11]: 10 µM

COc1cc(-c2cc(=O)n3ccccc3n2)cc(OC)c1OC
Topoisomerase 2-alpha inhibition (active/inactive) [2]: Active
CC50 at 48 h [3]: 46 µM
Activity [13]: Active
CC50 [11]: 9 µM

COc1ccc(-c2coc3ccccc3c2=O)cc1
CC50 at 48 h [3]: 52 µM
CC50 [11]: 12 µM

CC[n+]1c(-c2ccccc2)c2cc(N)ccc2c2ccc(N)cc21
Activity (Bos taurus): Active

COc1ccc(-c2cnc3ccccn3c2=O)cc1
Topoisomerase 2-alpha inhibition (active/inactive) [2]: Active
CC50 at 48 h [3]: 38 µM
CC50 [11]: 19 µM

O=c1c(-c2ccccc2)cnc2c(OCc3ccccc3)cccn12
RatioLC50 (HEK293 [1]): 5 - 10
Topoisomerase 2-alpha inhibition (active/inactive) [2]: Active
CC50 at 48 h [3]: 60 µM
Activity [3]: Dose-dependent effect
IC50 [4]: 2 µM
IC50 [5]: 2 µM
IC50 [6]: 1.5 µM
IC50 [7]: 3 µM
IC50 [8]: 3 µM
CC50 [9]: 3.8 µM
inhibition (HEK293 [10]): Dose-dependent effect
CC50 [11]: 3 µM
Activity (HEK293 [12]): Dose-dependent effect

O=c1c(-c2ccc(O)c(O)c2)cnc2ccccn12
Topoisomerase 2-alpha inhibition (active/inactive) [2]: Active
CC50 at 48 h [3]: 38 µM
CC50 [11]: 9 µM

O=c1cc(-c2ccc(O)c(O)c2)nc2ccccn12
Topoisomerase 2-alpha inhibition (active/inactive) [2]: Active
CC50 at 48 h [3]: 32 µM
CC50 [11]: 13 µM

O=c1c(-c2ccc3c(c2)OCO3)cnc2ccccn12
Topoisomerase 2-alpha inhibition (active/inactive) [2]: Active
CC50 at 48 h [3]: 48 µM
CC50 [11]: 15 µM

O=c1cc(-c2ccc3c(c2)OCO3)oc2ccccc12
Topoisomerase 2-alpha inhibition (active/inactive) [2]: Active
CC50 at 48 h [3]: 48 µM
CC50 [11]: 8 µM

O=c1cc(-c2ccc(Cl)cc2)nc2ccccn12
Activity (HEK293 [14]): 0.42%
Activity (HEK293 [15]): 88.48%
Activity (HEK293 [16]): 77.6%
Activity (HEK293 [17]): Dose-dependent effect
Activity (HEK293 [18]): 0.66%
RatioLC50 (HEK293 [1]): 5 - 10
Topoisomerase 2-alpha inhibition (active/inactive) [2]: Active
CC50 at 48 h [3]: 47.5 µM
Activity [3]: Dose-dependent effect
Activity (HEK293 [19]): 0%
Activity (HEK293 [20]): 12.8%
Activity (HEK293 [21]): 3.41%
Activity (HEK293 [22]): 0.02%
IC50 [4]: 2.1 µM
IC50 [5]: 1.8 µM
Activity (HEK293 [23]): 0.2%
Activity (HEK293 [24]): 18.56%
Activity (HEK293 [25]): Dose-dependent effect
IC50 [6]: 2 µM
Activity (HEK293 [26]): 10.83%
IC50 [7]: 2.5 µM
IC50 [8]: 2.3 µM
Activity (HEK293 [27]): Dose-dependent effect
Activity (HEK293 [28]): 87%
Activity [13]: Active
CC50 [9]: 2 µM
inhibition (HEK293 [10]): Dose-dependent effect
CC50 [11]: 2.4 µM
Activity (HEK293 [12]): Dose-dependent effect
Activity (HEK293 [29]): Dose-dependent effect

Cc1ccc(-c2coc3ccccc3c2=O)cc1
Topoisomerase 2-alpha inhibition (active/inactive) [2]: Active
CC50 at 48 h [3]: 48 µM
CC50 [11]: 8 µM

COc1ccc(-c2cc(=O)n3ccccc3n2)cc1OC
Topoisomerase 2-alpha inhibition (active/inactive) [2]: Active
CC50 at 48 h [3]: 50 µM
CC50 [11]: 17 µM

O=c1c(-c2cc(O)cc(O)c2)cnc2ccccn12
RatioLC50 (HEK293 [1]): 5 - 10
Topoisomerase 2-alpha inhibition (active/inactive) [2]: Active
CC50 at 48 h [3]: 50 µM
Activity [3]: Dose-dependent effect
IC50 [4]: 2.8 µM
IC50 [5]: 2 µM
IC50 [6]: 1.5 µM
IC50 [7]: 3 µM
IC50 [8]: 3 µM
CC50 [9]: 2.4 µM
inhibition (HEK293 [10]): Dose-dependent effect
CC50 [11]: 2 µM
Activity (HEK293 [12]): Dose-dependent effect

COc1cc(-c2cc(=O)c3ccccc3o2)cc(OC)c1OC
Topoisomerase 2-alpha inhibition (active/inactive) [2]: Active
CC50 at 48 h [3]: 52 µM
CC50 [11]: 12 µM

O=Cc1ccc(-c2cc(=O)n3ccccc3n2)cc1
RatioLC50 (HEK293 [1]): 5 - 10
Topoisomerase 2-alpha inhibition (active/inactive) [2]: Active
CC50 at 48 h [3]: 48 µM
Activity [3]: Dose-dependent effect
IC50 [4]: 2.4 µM
IC50 [5]: 2.5 µM
IC50 [6]: 3 µM
IC50 [7]: 3.5 µM
IC50 [8]: 2.5 µM
Activity [13]: Active
CC50 [9]: 2.5 µM
inhibition (HEK293 [10]): Dose-dependent effect
CC50 [11]: 3 µM
Activity (HEK293 [12]): Dose-dependent effect

COc1ccc(-c2cc(=O)c3ccccc3o2)cc1 [4'-METHOXYFLAVONE]
Topoisomerase 2-alpha inhibition (active/inactive) [2]: Active
CC50 at 48 h [3]: 45 µM
CC50 [11]: 8.5 µM

O=c1cc(-c2ccc3c(c2)OCO3)nc2ccccn12
Topoisomerase 2-alpha inhibition (active/inactive) [2]: Active
CC50 at 48 h [3]: 52 µM
CC50 [11]: 15.5 µM
